Source: the supplement of paper PMC8967900

These compounds were tested on MOLT-4 (assay: selective drug sensitivity score (sDSS, relative to normal bone marrow) (sDSS (score)); higher = more potent and effective on the cell line relative to normal bone marrow cells). Details: 72 h.
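Further: ALL cell lines in 384-well plates, five doses spanning 10,000-fold, each plate scaled between vehicle and 100 µmol/L benzalkonium chloride controls, sDSS an adapted area-under-curve metric.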

Structure (SMILES) | selective drug sensitivity score
Cn1nccc1Nc1nccc(-c2ccn([C@H](CO)c3ccc(Cl)c(F)c3)c(=O)c2)n1 [Ravoxertinib] (top concentration 10000 nM) | -1.2
CC1=NN(c2ccc(C(=O)O)cc2)C(=O)C1=Cc1ccc(-c2cc(C)c(C)cc2[N+](=O)[O-])o1 [C646] (top concentration 25000 nM) | 0.24
CC(C)c1cc(C(=O)N2Cc3ccc(CN4CCN(C)CC4)cc3C2)c(O)cc1O [Onalespib] (top concentration 2500 nM) | 5.92
CCN1C(=O)CNc2ncc(-c3ccc(-c4nc[nH]n4)nc3C)nc21 [CC-115] (top concentration 10000 nM) | 3.04
COc1cc(N2CCC(N3CCN(C)CC3)CC2)ccc1Nc1ncc(Cl)c(Nc2ccccc2P(C)(C)=O)n1 [Brigatinib] (top concentration 1000 nM) | 0.36
CN1CCN(c2nc(C3=C(c4c[nH]c5ccccc45)C(=O)NC3=O)c3ccccc3n2)CC1 [Sotrastaurin] (top concentration 10000 nM) | -1.7
CCN(CC)Cc1ccc2cc(COC(=O)Nc3ccc(C(=O)NO)cc3)ccc2c1 [Givinostat] (top concentration 1000 nM) | 2.1
CNC(=O)c1cc(Oc2ccc(NC(=O)Nc3ccc(Cl)c(C(F)(F)F)c3)cc2)ccn1 [Sorafenib] (top concentration 1000 nM) | 0
COc1ccc(S(=O)(=O)Nc2cccnc2Nc2ccc(O)cc2)cc1 [ABT-751] (top concentration 10000 nM) | 11.1
C[C@@H](Oc1ccc2[nH]nc(/C=C/c3cnn(CCO)c3)c2c1)c1c(Cl)cncc1Cl (top concentration 1000 nM) | -0.54

Each compound was assayed on 697 in the same assay as above. Details: 72 h.

Structure (SMILES) | selective drug sensitivity score
Cc1nc(Nc2ncc(C(=O)Nc3c(C)cccc3Cl)s2)cc(N2CCN(CCO)CC2)n1 [Dasatinib] (top concentration 1000 nM) | 3.1
N[C@@H]1CCCN(c2c(/C=C3\SC(=O)NC3=O)cccc2-c2ccccc2)C1 [AZD1208] (top concentration 10000 nM) | 1.2
CC(C)C[C@H](NC(=O)CNC(=O)c1cc(Cl)ccc1Cl)B(O)O [Ixazomib] (top concentration 1000 nM) | 5.56
C=CC(=O)N1CCC[C@@H](n2nc(-c3ccc(Oc4ccccc4)cc3)c3c(N)ncnc32)C1 [Ibrutinib] (top concentration 1000 nM) | 2.2
Cn1cnc2c(F)c(Nc3ccc(Br)cc3F)c(C(=O)NOCCO)cc21 [Binimetinib] (top concentration 1000 nM) | -1.62
COc1cc(Nc2ncc(F)c(Nc3ccc4c(n3)N(COP(=O)(O)O)C(=O)C(C)(C)O4)n2)cc(OC)c1OC [Fostamatinib] (top concentration 2500 nM) | 3.16
COc1cc2c(Oc3ccc(NC(=O)C4(C(=O)Nc5ccc(F)cc5)CC4)cc3F)ccnc2cc1OCCCN1CCOCC1 [Foretinib] (top concentration 1000 nM) | 2.24
Sc1ncnc2nc[nH]c12 [Mercaptopurine] (top concentration 10000 nM) | 8
COCCNCc1ccc(-c2cc3nccc(Oc4ccc(NC(=S)NC(=O)Cc5ccc(F)cc5)cc4F)c3s2)nc1 [Glesatinib] (top concentration 2500 nM) | 0.04
Cn1nccc1Nc1nccc(-c2ccn([C@H](CO)c3ccc(Cl)c(F)c3)c(=O)c2)n1 [Ravoxertinib] (top concentration 10000 nM) | 1.5
CC1=NN(c2ccc(C(=O)O)cc2)C(=O)C1=Cc1ccc(-c2cc(C)c(C)cc2[N+](=O)[O-])o1 [C646] (top concentration 25000 nM) | 2.34
CC(C)c1cc(C(=O)N2Cc3ccc(CN4CCN(C)CC4)cc3C2)c(O)cc1O [Onalespib] (top concentration 2500 nM) | 2.82
CCN1C(=O)CNc2ncc(-c3ccc(-c4nc[nH]n4)nc3C)nc21 [CC-115] (top concentration 10000 nM) | 4.14
COc1cc(N2CCC(N3CCN(C)CC3)CC2)ccc1Nc1ncc(Cl)c(Nc2ccccc2P(C)(C)=O)n1 [Brigatinib] (top concentration 1000 nM) | -1.84
CN1CCN(c2nc(C3=C(c4c[nH]c5ccccc45)C(=O)NC3=O)c3ccccc3n2)CC1 [Sotrastaurin] (top concentration 10000 nM) | 8
CCN(CC)Cc1ccc2cc(COC(=O)Nc3ccc(C(=O)NO)cc3)ccc2c1 [Givinostat] (top concentration 1000 nM) | 4.8
CNC(=O)c1cc(Oc2ccc(NC(=O)Nc3ccc(Cl)c(C(F)(F)F)c3)cc2)ccn1 [Sorafenib] (top concentration 1000 nM) | 1.7
COc1ccc(S(=O)(=O)Nc2cccnc2Nc2ccc(O)cc2)cc1 [ABT-751] (top concentration 10000 nM) | 12.8
C[C@@H](Oc1ccc2[nH]nc(/C=C/c3cnn(CCO)c3)c2c1)c1c(Cl)cncc1Cl (top concentration 1000 nM) | 1.96

The compounds below were run on NALL-1 in the same assay as above. Details: 72 h.

Structure (SMILES) | selective drug sensitivity score
Cc1nc(Nc2ncc(C(=O)Nc3c(C)cccc3Cl)s2)cc(N2CCN(CCO)CC2)n1 [Dasatinib] (top concentration 1000 nM) | -2.8
N[C@@H]1CCCN(c2c(/C=C3\SC(=O)NC3=O)cccc2-c2ccccc2)C1 [AZD1208] (top concentration 10000 nM) | 2.4
CC(C)C[C@H](NC(=O)CNC(=O)c1cc(Cl)ccc1Cl)B(O)O [Ixazomib] (top concentration 1000 nM) | 6.56
C=CC(=O)N1CCC[C@@H](n2nc(-c3ccc(Oc4ccccc4)cc3)c3c(N)ncnc32)C1 [Ibrutinib] (top concentration 1000 nM) | 0
Cn1cnc2c(F)c(Nc3ccc(Br)cc3F)c(C(=O)NOCCO)cc21 [Binimetinib] (top concentration 1000 nM) | -2.22
COc1cc(Nc2ncc(F)c(Nc3ccc4c(n3)N(COP(=O)(O)O)C(=O)C(C)(C)O4)n2)cc(OC)c1OC [Fostamatinib] (top concentration 2500 nM) | -2.64
COc1cc2c(Oc3ccc(NC(=O)C4(C(=O)Nc5ccc(F)cc5)CC4)cc3F)ccnc2cc1OCCCN1CCOCC1 [Foretinib] (top concentration 1000 nM) | 1.74
Sc1ncnc2nc[nH]c12 [Mercaptopurine] (top concentration 10000 nM) | 10.7
COCCNCc1ccc(-c2cc3nccc(Oc4ccc(NC(=S)NC(=O)Cc5ccc(F)cc5)cc4F)c3s2)nc1 [Glesatinib] (top concentration 2500 nM) | 2.94
Cn1nccc1Nc1nccc(-c2ccn([C@H](CO)c3ccc(Cl)c(F)c3)c(=O)c2)n1 [Ravoxertinib] (top concentration 10000 nM) | 10
CC1=NN(c2ccc(C(=O)O)cc2)C(=O)C1=Cc1ccc(-c2cc(C)c(C)cc2[N+](=O)[O-])o1 [C646] (top concentration 25000 nM) | -2.06
CC(C)c1cc(C(=O)N2Cc3ccc(CN4CCN(C)CC4)cc3C2)c(O)cc1O [Onalespib] (top concentration 2500 nM) | -4.68
CCN1C(=O)CNc2ncc(-c3ccc(-c4nc[nH]n4)nc3C)nc21 [CC-115] (top concentration 10000 nM) | 4.24
COc1cc(N2CCC(N3CCN(C)CC3)CC2)ccc1Nc1ncc(Cl)c(Nc2ccccc2P(C)(C)=O)n1 [Brigatinib] (top concentration 1000 nM) | -3.34
CN1CCN(c2nc(C3=C(c4c[nH]c5ccccc45)C(=O)NC3=O)c3ccccc3n2)CC1 [Sotrastaurin] (top concentration 10000 nM) | 1.9
CCN(CC)Cc1ccc2cc(COC(=O)Nc3ccc(C(=O)NO)cc3)ccc2c1 [Givinostat] (top concentration 1000 nM) | -0.4
CNC(=O)c1cc(Oc2ccc(NC(=O)Nc3ccc(Cl)c(C(F)(F)F)c3)cc2)ccn1 [Sorafenib] (top concentration 1000 nM) | 0
COc1ccc(S(=O)(=O)Nc2cccnc2Nc2ccc(O)cc2)cc1 [ABT-751] (top concentration 10000 nM) | 10.8
C[C@@H](Oc1ccc2[nH]nc(/C=C/c3cnn(CCO)c3)c2c1)c1c(Cl)cncc1Cl (top concentration 1000 nM) | -1.74
